The source made the active and inactive calls.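 How the source made its calls: active means clearly stronger inhibition of the target kinase than of the helper enzymes tested alone in a counter assay; inactive means the rest.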
How the values were obtained:
[1] = target: mevalonate kinase (Streptococcus pneumoniae D39); test: S. pneumoniae MK inhibitor potency, dose response, biochemical, PK/LDH-coupled NADH absorbance, hexokinase coupling counter-screen (AID 557); conditions: purified MK, PK/LDH coupled NADH absorbance 340 nm
[2] = as above; conditions: purified MK, PK/LDH coupled NADH absorbance 340 nm; measured here: coupling enzymes counter-screen (hexokinase)

Compound	outcome [1]	also measured
CC(C)C1Oc2ccccc2N(CC(=O)NCCCN2C(C)CCCC2C)C1=O (centres undefined)	inactive	–
COc1ccc(N(CC(=O)Nc2cc(OC)ccc2OC)S(C)(=O)=O)cc1	inactive	–
COc1cc(NC(=O)c2cc(CC(C)C)on2)c(OC)cc1Cl	inactive	–
COc1ccc(CN2C(=O)c3cccnc3C2Nc2cc(Cl)ccc2OC)cc1 (centres undefined)	–	IC50 [1]: 5.71 µM
N/C(CCN1CCOCC1)=N/O	inactive	–
CCCc1[nH]nc2c1C(c1ccc(OC)c(Cn3nnc4ccccc43)c1)C(C#N)=C(N)O2 (centres undefined)	inactive	–
CCN(CC)S(=O)(=O)c1ccc(NC2c3ncccc3C(=O)N2Cc2ccccc2)cc1 (centres undefined)	–	IC50 [1]: 21.9 µM
O=C1CN(C(=O)COC(=O)C2=COCCO2)c2ccccc2N1	inactive	–
N#Cc1ccc(-c2cccnc2)nc1SCC(=O)Nc1sc2c(c1C#N)CCC2	inactive	–
Cc1cccc(C(=O)Nc2ccccc2C(=O)OCc2c(C)noc2C)c1	inactive	–
COc1cc(C2c3c(n[nH]c3C)C(=O)N2c2ccc(C)cc2)ccc1O (centres undefined)	inactive	–
CCC(=O)Nc1ccc(NC(=O)c2ccccn2)cn1	inactive	–
CCOC(=O)c1cc2sc(C)cc2n1CC(=O)N1CCN(C(=O)c2ccco2)CC1	inactive	–
Cc1c(S(=O)(=O)Nc2cccc(Cl)c2)c(=O)n(C)c(=O)n1C	inactive	–
CC1=NN(c2ccccc2)C(=O)C1	inactive	–
COc1ccc(CN2C(=O)c3cccnc3C2Nc2cc(Cl)c(OC)cc2OC)cc1 (centres undefined)	–	IC50 [1]: 15.2 µM
O=C(NCc1n[nH]c(=S)n1-c1ccccc1)c1ccco1	inactive	–
COc1ccccc1NS(=O)(=O)c1cccc2cccnc12	inactive	–
Cc1ccc2[nH]c(=O)c(CN(CCN3CCOCC3)C(=O)Nc3ccccc3F)cc2c1	inactive	–
c1ccn2c(SCc3ccc4c(c3)OCO4)nnc2c1	inactive	–
CCS(=O)(=O)NCCc1csc(C)n1	inactive	–

Compound	outcome [1]	also measured
CCOC(=O)C1CCN(C(=O)CN(c2ccc(OC)c(OC)c2)S(=O)(=O)c2ccccc2)CC1	inactive	–
CCOC(=O)c1c(C)n(C)c2ccc(O)c(CN3CCC(C)CC3)c12	inactive	–
O=C(COC(=O)Cc1ccc(S(=O)(=O)N2CCOCC2)s1)NCc1ccccc1	inactive	–
Cc1occc1C(=O)Nc1nnc(C(F)(F)F)s1	inactive	–
O=c1c2ccccc2nnn1CSc1nnc(-c2cccs2)n1Cc1ccccc1	inactive	–
COc1ccc(-c2nc(C#N)c(N3CCOCC3)o2)cc1OC	inactive	–
O=c1c(-c2ccccc2)c(O)c2cccc3c2n1CCC3	inactive	–
COc1ncnc(OC)c1NC(=O)c1ccc(F)cc1	inactive	–
Cc1noc(C)c1C(=O)OCC(=O)/C=C1\N(C)c2ccccc2C1(C)C	inactive	–
O=C(c1ccc(F)cc1)N1CCC(N2CCCCCC2)CC1	inactive	–
CCn1nnc(NC(=O)c2cccc(-c3cc4ccccc4oc3=O)c2)n1	inactive	–
Cc1cc(N2CCN(C(=O)c3ccco3)CC2)n2ncnc2n1	inactive	–
CN(Cc1c(O)ccc2c1oc(=O)c1ccccc12)C1CCCCC1	–	IC50 [2]: 8.83 µM
Cc1ccc(NC2c3ncccc3C(=O)N2c2ccccc2C)cc1C (centres undefined)	–	IC50 [1]: 4.5 µM
O=c1oc2ccccc2c(O)c1CN1CCCCC1	inactive	–
O=C(NCc1nnc(SCC(=O)N2CCN(c3ccccc3)CC2)o1)c1ccco1	inactive	–
COc1ccc(-n2c(=O)c3c4c(sc3n(CC(=O)NCc3ccco3)c2=O)CCC4)c(OC)c1	inactive	–
CC(C)OCCCNC(=O)CN1C(=O)CC(C)(C)S(=O)(=O)c2ccccc21	inactive	–
CCN(CC)S(=O)(=O)c1ccc(C(=O)OCC(=O)N2CCN(C(=O)c3ccco3)CC2)cc1	inactive	–
O=C(NCc1cn2ccccc2n1)c1ccccc1	inactive	–
Cn1c(SCCOc2cccc(Cl)c2)nnc1-c1ccncc1	inactive	–

Compound	outcome [1]	also measured
Cc1ccc(CNC(=O)C2CCN(S(=O)(=O)c3c(C)noc3C)CC2)cc1	inactive	–
Cc1noc(C)c1CSc1nnc(C)c(=O)[nH]1	inactive	–
COc1ccc2[nH]cc(C3N4CC5(C)CN3CC(C)(C4)C5=O)c2c1 (centres undefined)	inactive	–
Cc1nn(-c2ccccc2)c2c1C(O)n1c(nc3ccccc31)S2 (centres undefined)	inactive	–
Nc1nnc(CCS(=O)(=O)c2cc(Cl)ccc2Cl)s1	inactive	–
Cn1cccc1Cc1nnc(SCC(=O)NCc2ccc(F)cc2)n1-c1ccc(F)cc1	inactive	–
CCCCn1c(Cl)nc2c1c(=O)n(C)c(=O)n2C	inactive	–
Cn1cnnc1SCC(=O)n1c2ccccc2c2ccccc21	inactive	–
COc1ccc(Cl)cc1NC(=O)C1CCCN(S(=O)(=O)c2cccc3nonc23)C1 (centres undefined)	inactive	–
CCOc1cc(C(=O)NCCN2CCOCC2)cc(OCC)c1OCC	inactive	–
CCOC(=O)c1[nH]c2ccccc2c1NC(=O)c1ccc(Br)o1	inactive	–
COCCCn1c(SCC(=O)NCc2ccco2)nc2sc3c(c2c1=O)CCC3	inactive	–
COc1cccc(N2CCN(C3CC(=O)N(c4ccc(C)c(Cl)c4)C3=O)CC2)c1 (centres undefined)	inactive	–
CCn1c(CC(C)C)n[nH]c1=S	inactive	–
CN1CCN(c2nc3c(c(=O)n(C)c(=O)n3C)n2Cc2cccc3ccccc23)CC1	inactive	–
COc1ccc(N(CC(=O)NCc2cccs2)S(=O)(=O)c2cccnc2)cc1	inactive	–
Cc1ccsc1C1C(C(=O)O)c2ccccc2C(=O)N1C (centres undefined)	inactive	–
CCn1c(SCC(=O)c2ccccc2)nc2c(c1=O)SC(C)C2 (centres undefined)	inactive	–
OCCN(Cc1ccccc1)Cc1cccc(F)c1	inactive	–
Cc1cc(NC(=O)c2cc(C3CC3)on2)no1	inactive	–
COc1ccc(NC(=O)c2cc(-c3ccccc3OC)on2)cc1	inactive	–

Compound	outcome [1]	also measured
CN(CCC(=O)Nc1ccc2c(c1)OCO2)Cc1ccccc1	inactive	–
COc1cc2c(cc1OC)CN(Cc1ccc(OC)c(C)c1OC)CC2	inactive	–
COC(=O)C1=C(C)OC(N)=C(C#N)C1c1cc(OC)c(OCC(N)=O)cc1Cl (centres undefined)	inactive	–
CN(C)c1ccc(CNCCC2(O)CCOC(C)(C)C2)cc1 (centres undefined)	inactive	–
Cc1ccsc1CN1CCN(c2ccccn2)CC1	inactive	–
CCOc1ccc(-n2c(-c3ccco3)n[nH]c2=S)cc1	inactive	–
CC(=O)NC(CCS(C)(=O)=O)C(=O)Nc1c(C)cccc1C (centres undefined)	inactive	–
Cc1ccc(C(=O)COC(=O)CNC(=O)c2ccco2)cc1	inactive	–
N#C/C(=C(/O)COC(=O)CCc1ccc(S(=O)(=O)N2CCOCC2)cc1)c1nc2ccccc2[nH]1	inactive	–
CC(C)NC(=O)CSc1nnc(-c2ccc(S(=O)(=O)N3CCCC3)cc2)n1CC1CCCO1 (centres undefined)	inactive	–
O=C(c1cc(-c2ccco2)on1)N1CCCc2ccccc21	inactive	–
COc1c(Br)cc2c(C)c(C(=O)O)oc2c1Br	inactive	–
CCCCOC(=O)CSC1=C(C#N)C(c2ccccc2OC)C(C#N)C(=O)N1 (centres undefined)	inactive	–
Oc1ccc(-c2n[nH]c(=S)n2Cc2ccccc2)cc1	inactive	–
Cc1cccc(NC(=O)c2cnc3sccn3c2=O)n1	inactive	–
O=c1c2ccccc2nc2n1CCC2	–	IC50 [2]: > 1360 µM
CCn1nc(-c2cccs2)nc2c(=O)n(C)c(=O)nc1-2	–	IC50 [2]: 9.46 µM
CC1CCN(S(=O)(=O)c2ccc(NC(=O)CN3CCN(C)CC3)cc2)CC1	inactive	–
O=C1C(=O)N(CCN2CCOCC2)C(c2ccncc2)/C1=C(/O)c1ccc2c(c1)OCO2 (centres undefined)	–	IC50 [1]: 116 µM
COc1ccccc1N1CCN(Cc2ccc(OC)c3ccccc23)CC1	inactive	–
COc1ccc2nc(NC(=O)C3CCCN(S(=O)(=O)c4cccc5nonc45)C3)sc2c1 (centres undefined)	inactive	–

From PubChem BioAssay AID557 (SRMLSC, 2006)
